Where “and” joins values, the source holds several entries; their conditions need not be identical. Equal values may be shown once. Read-outs that look alike come from different tables or passages of the source.
Target: T1, IL-4 (Homo sapiens, UniProt P05112)
T1 construct: purchased Acros Biosystems IL4-H4218; host or cells: HEK-293
T1 sequence (P05112 25-153): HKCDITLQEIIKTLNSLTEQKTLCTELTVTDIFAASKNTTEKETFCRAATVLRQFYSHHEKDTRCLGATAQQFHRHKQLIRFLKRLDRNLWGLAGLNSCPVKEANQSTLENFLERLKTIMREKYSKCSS
Assay: HEK-Blue IL-4/IL-13 reporter assay, IL-4 inhibition
Format: cell-based
Details: for inhibition at 10 µM: HEK-Blue; for inhibition at 10 µM / % Inhibition: IL-4, HEK Blue IL-4/IL-13 reporter assay, 10 μM; for EC50: dose response, IL-4 inhibition, HEK Blue IL-4/IL-13 reporter assay, read-out: EC50
Description: HEK-Blue IL-4/IL-13 Inhibition assay. HEK-Blue IL-4/IL-13 reporter cell lines were purchased from Invivogen and cultured in DMEM with 10% Heat Inactivated Fetal Bovine Serum (FBS), 100 U/ml-100 μg/ml Pen-Strep, 10 μg/ml blasticidin, 100 μg/ml Normocin and 100 μg/ml Zeocin. Cells were tested for secreted embryonic alkaline phosphatase (SEAP) production induced by IL-4 alone prior to small molecule screening.
22.5 μl of small molecule in DMEM 4% DMSO was added to 22.5 μl of 1 ng/ml IL-4 in DMEM in a non-binding 96-well reaction plate for 30 minutes at room temperature. The reaction plate was further incubated for 30-60 min at 37° C. HEK-Blue IL-4/IL-13 reporter cell line was used between passages 11-17. […] Measurements were done in triplicate. The plate was incubated for ˜22-24 hours at 37° C./5% CO2. Quanti-Blue dye was prepared as per the manufacturer's recommendation and 160 μl was dispensed in each well of a 96-well plate (avoid edges to avoid evaporation), 40 μl of cell supernatant was added to the same plate and incubated for 3 hours at 37° C./5% CO2. Optical density was then measured at 650 nm using Molecular Devices SpectraMax M5 Microplate reader. Data was analyzed and plotted using GraphPad Prism 9.2.0.

Row | Structure (SMILES) | inhibition at 10 µM [%] | inhibition at 10 µM (read-out: % Inhibition) [%] | other results
1 | N#Cc1c(-c2cccnc2)cc(-c2ccc(F)cc2)[nH]c1=N [Compound 50, 6′-(4-fluorophenyl)-2′-imino-1′,2′-dihydro-[3,4′-bipyridine]-3′-carbonitrile] | 10 ± 17.2 | – | –
2 | N#Cc1c(-c2ccc(O)c(O)c2)cc(C2CCCCC2)nc1N [Compound 12, 2-amino-6-cyclohexyl-4-(3,4-dihydroxyphenyl)nicotinonitrile] | 49.4 | – | % Inhibition: 48.4 ± 5.80%
3 | N#Cc1c(-c2ccccc2)cc(-c2ccc(F)cc2)[nH]c1=N [Compound 43, 6-(4-fluorophenyl)-2-imino-4-phenyl-1,2-dihydropyridine-3-carbonitrile] | – | 6.13 ± 9.13 | –
4 | N#Cc1c(-c2ccc(O)c(O)c2)cc(-c2ccc(O)cc2)[nH]c1=N [Compound 4, 4-(3,4-dihydroxyphenyl)-6-(4-hydroxyphenyl)-2-imino-1,2-dihydropyridine-3-carbonitrile] | > 80 | – | % Inhibition: 81.2 ± 18.9%; EC50: 1.14 ± 0.38 µM
5 | N#CC1C(=O)N=C(c2ccc(O)cc2)C=C1c1ccc(O)c(O)c1 (stereo not shown) [Compound 32, 4-(3,4-dihydroxyphenyl)-6-(4-hydroxyphenyl)-2-oxo-2,3-dihydropyridine-3-carbonitrile] | 94.1 | – | –
6 | N#Cc1c(-c2ccc(O)c(I)c2)cc(-c2ccc(F)cc2)[nH]c1=N [Compound 53, 6(4-fluorophenyl)-4-(4-hydroxy-3-iodophenyl)-2-imino-1,2-dihydropyridine-3-carbonitrile] | 58.9 ± 19.9 | – | –
7 | N#Cc1c(-c2ccc(O)c(O)c2)cc(C2CC2)nc1N [2A/55, 2-amino-6-cyclopropyl-4-(3,4-dihydroxyphenyl) nicotinonitrile] | – | 2.47 ± 14.2 | –
8 | N#Cc1c(-c2ccc(Cl)c(Cl)c2)cc(-c2ccc(F)cc2)[nH]c1=O [Compound 34, 4-(3,4-dichlorophenyl)-6-(4-fluorophenyl)-2-oxo-1,2-dihydropyridine-3-carbonitrile] | 44.2 ± 11.1 | – | –
9 | N#Cc1c(-c2ccc(O)c(O)c2)cc(-c2ccccc2F)nc1N [Compound 2, 2-amino-4-(3A-dihydroxyphenyl)-6-(2-fluorophenyl)nicotinonitrile] | – | – | % Inhibition: 40.0 ± 5.87%
10 | Cc1cc(-c2ccc(O)c(O)c2)c(C#N)c(N)n1 [Compound 13, 2-amino-4-(3,4-dihydroxyphenyl)-6-methylnicotinonitrile] | – | 70.2 | –
11 | N#Cc1c(-c2ccc(O)c(O)c2)cc(-c2ccc(F)cc2)[nH]c1=O [Compound 19, 4-(3,4-dihydroxyphenyl)-6-(4-fluorophenyl)-2-oxo-1,2-dihydropyridine-3-carbonitrile] | – | 71.2 ± 5.6 | –
12 | N#Cc1c(-c2ccc(O)c(O)c2)cc(-c2ccco2)nc1N [Compound 8, 2-amino-4-(3,4-dihydroxyphenyl)-6-(furan-2-yl)nicotinonitrile] | – | – | % Inhibition: No inhibition
13 | N#CC1C(=N)N=C(c2cnccn2)C=C1c1ccc(O)c(O)c1 (stereo not shown) [Compound 9, 4-(3,4-dihydroxyphenyl)-2-imino-6-(pyrazin-2-yl)-2,3-dihydropyridine-3-carbonitrile] | – | 64.2 ± 13.4 | –
14 | N#Cc1c(-c2ccc(O)c(O)c2)cc(C2CCC2)nc1N [3A/56, 2-amino-6-cyclobutyl-4-(3,4-dihydroxyphenyl) nicotinonitrile] | – | 28.5 ± 12.1 | –
15 | N#CC1C(=N)N=C(c2ccc(Br)cc2)C=C1c1ccc(O)c(O)c1 (stereo not shown) [Compound 3, 6-(4-bromophenyl)-4-(3,4-dihydroxyphenyl)-2-imino-2,3-dihydropyridine-3-carbonitrile] | – | – | % Inhibition: 63.3 ± 2.54% and 93.3 ± 2.54%; EC50: 1.3 ± 0.39 µM
16 | Cc1ccc(N2CCCCC2)cc1 [Compound 18] | – | 88.2 ± 13.9 | –
17 | COc1cc(-c2cc(-c3ccc(F)cc3)[nH]c(=N)c2C#N)ccc1O [Compound 48, 6-(4-fluorophenyl)-4-(4-hydroxy-3-methoxyphenyl)-2-imino-1,2-dihydropyridine-3-carbonitrile] | 100 ± 0.49 | – | EC50: 8.4 µM and 6.4 µM

— patent US20250313530A1, “SMALL MOLECULE INHIBITORS OF INTERLEUKIN-4 AND USES THEREOF” (Trustees of Boston University, priority 2024, published 2025)
